The subject of series [1] is DBA/1J mice with collagen-induced arthritis.
Another series relates to whole human IgG4. The experiment in a line: Inhibition of Fc:Fc interactions: immune complexes on IgG4 coated microwells (Example 3). The format is binding. The note with it: IgG4 coated microwells; positive control (buffer) 0.716. An excerpt:
Inhibition of Fc:Fc interactions: The Fc region of IgG4 interacts in an Fc to Fc fashion with immune complexed IgG. Purified IgG4 is used with polypeptides of the invention to examine inhibition of immune complex formation and Fc:Fc interactions. Chemical modification of His435, a critical IgG Fc amino acid bound by polypeptides of the invention, is known to inhibit Fc:Fc interactions.

Where [2] appears, read: 10 mg/kg, versus diseased control.

Where two headings read alike, the source gives them in different places. Residues, ends and D or L forms follow the SMILES beside them.

Chain of whole human IgG4 (P01861 99-327 isoform P01861-1 limits assumed): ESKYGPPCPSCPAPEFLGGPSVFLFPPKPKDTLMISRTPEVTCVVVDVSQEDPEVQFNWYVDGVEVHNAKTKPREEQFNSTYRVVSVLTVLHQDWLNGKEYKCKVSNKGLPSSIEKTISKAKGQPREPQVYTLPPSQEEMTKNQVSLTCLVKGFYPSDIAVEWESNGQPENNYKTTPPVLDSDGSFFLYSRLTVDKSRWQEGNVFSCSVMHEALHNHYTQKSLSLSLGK

Regarding `CC(C)C[C@@H]1NC(=O)[C@H](Cc2c[nH]cn2)NC(=O)[C@H](Cc2c[nH]c3ccccc23)NC(=O)[C@H](C)NC(=O)[C@@H](NC(=O)[C@@H](N)CC(=O)O)CSSC[C@@H](C(=O)N[C@H](C(=O)O)[C@@H](C)O)NC(=O)[C@H](Cc2c[nH]c3ccccc23)NC(=O)[C@H](C(C)C)NC(=O)[C@H](CC(C)C)NC(=O)[C@H](CCC(=O)O)NC(=O)CNC1=O`, the “adverse reactions at injection sites” value in series [1] (daily subcutaneous injections day 32 to day 47, all doses, injection sites examined daily) is “no adverse reactions were observed”. In series [1] (mouse, in vivo), the “maximum inhibition of arthritic symptoms” value turned out to be 37%.

Take “REMICADE: REMICADE® was obtained from Centocor (Malvern, Pa.)”: in series [1] (10 mg/kg), the “effect on arthritic symptoms, in words” value was “no effect” and the “effect on histological symptoms of arthritis, in words” value is on record as “no effect”. The “Arthritic Index” value in series [1] (10 mg/kg subcutaneously daily, average over final three days of treatment, diseased control 3.8) was 3.8. In addition, the “Histological Evaluation” value in series [1] (10 mg/kg, hindlimbs, day 48, diseased control 45) is 45. In series [1] (setting [2]), the “Arthritic Index Percent Change” value was 0% and the “Histological Evaluation Percent Change” value came to 0%. In series [1] (mouse, in vivo, sc), the “adverse reactions at injection sites” value is on record as “no adverse reactions were observed”.

Regarding `CC(C)C[C@@H]1NC(=O)[C@H](Cc2c[nH]cn2)NC(=O)[C@H](CCCNC(=N)N)NC(=O)[C@H](C)NC(=O)[C@@H](NC(=O)[C@@H]2CCCN2C(=O)[C@@H]2CCCN2C(=O)[C@H](C)N)CSSC[C@@H](C(=O)N[C@H](C(=O)O)[C@@H](C)O)NC(=O)[C@H](Cc2c[nH]c3ccccc23)NC(=O)[C@H](C(C)C)NC(=O)[C@H](CC(C)C)NC(=O)[C@H](CCC(=O)O)NC(=O)CNC1=O` (HELM PEPTIDE1{A.P.P.C.A.R.H.L.G.E.L.V.W.C.T}$PEPTIDE1,PEPTIDE1,4:R3-14:R3$$$V2.0), in series [1] (mouse, in vivo, sc), the “adverse reactions at injection sites” value was “no adverse reactions were observed”.

On to “APPDCARHLGELVWCT (Synthetically generated polypeptide)”, for which the “OD 405 nm” value in the series on whole human IgG4 was found to be 0.107.
